In ChEMBL document CHEMBL1153550, “In vitro study of Candida tropicalis isolates exhibiting paradoxical growth in the presence of high concentrations of caspofungin” (2007) one finds MIC data, which are given here for three compounds.

In brackets after ≈: the same amount, converted by molar mass.

Common to all, as to format: functional
In assay [1] the test system is Candida tropicalis. The assay is described as follows: Antifungal activity against Candida tropicalis isolate 4 in RPMI 1640 medium by broth dilution susceptibility test.
Assay [2] deals with Candida tropicalis. The assay is described as follows: Antifungal activity against Candida tropicalis isolate 5 in RPMI 1640 medium by broth dilution susceptibility test.
In assay [3] the test system is Candida tropicalis. The assay is described as follows: Antifungal activity against Candida tropicalis isolate 7 in RPMI 1640 medium by broth dilution susceptibility test.
Assay [4] deals with Candida tropicalis. Nature of the assay: Antifungal activity against Candida tropicalis isolate 15 in RPMI 1640 medium by broth dilution susceptibility test.
Assay [5] has as its system Candida tropicalis. Nature of the assay: Antifungal activity against Candida tropicalis isolate 13 in RPMI 1640 medium by broth dilution susceptibility test.
Assay [6] has as its system Candida tropicalis. Nature of the assay: Antifungal activity against Candida tropicalis ATCC 750 in RPMI 1640 medium by broth dilution susceptibility test.
Assay [7] relates to Candida tropicalis. Nature of the assay: Antifungal activity against Candida tropicalis isolate 8 in RPMI 1640 medium by broth dilution susceptibility test.
Assay [8] relates to Candida tropicalis. Nature of the assay: Antifungal activity against Candida tropicalis isolate 6 in RPMI 1640 medium by broth dilution susceptibility test.

Consider `OC(Cn1cncn1)(Cn1cncn1)c1ccc(F)cc1F` [FLUCONAZOLE], for which the minimal inhibitory concentration (MIC) was 0.5 µg/mL (≈ 1.63 µM) in assay [1]; 0.25 µg/mL (≈ 0.816 µM) in assay [2]; 0.25 µg/mL (≈ 0.816 µM) in assay [3]; 0.25 µg/mL (≈ 0.816 µM) in assay [4]; 0.5 µg/mL (≈ 1.63 µM) in assay [5]; 1 µg/mL (≈ 3.27 µM) in assay [6]. For the same compound, the MIC turned out to be 0.5 µg/mL (≈ 1.63 µM) in assay [7] and 0.25 µg/mL (≈ 0.816 µM) in assay [8].
Regarding `C[C@@H]1[C@H](O)[C@@H](C)/C=C/C=C/C=C/C=C/C=C/C=C/C=C/[C@H](O[C@@H]2O[C@H](C)[C@@H](O)[C@H](N)[C@@H]2O)C[C@@H]2O[C@](O)(C[C@@H](O)C[C@@H](O)[C@H](O)CC[C@@H](O)C[C@@H](O)CC(=O)O[C@H]1C)C[C@H](O)[C@H]2C(=O)O` [AMPHOTERICIN B], the MIC in assay [1] was 2 µg/mL (≈ 2.16 µM); in assay [2] it was 2 µg/mL (≈ 2.16 µM); in assay [3], 2 µg/mL (≈ 2.16 µM); in assay [4] it was 2 µg/mL (≈ 2.16 µM); in assay [5], 2 µg/mL (≈ 2.16 µM); in assay [6] it was 1 µg/mL (≈ 1.08 µM). In addition, the MIC in assay [7] and in assay [8] was 2 µg/mL (≈ 2.16 µM) in each case.
As for `Nc1nc(=O)[nH]cc1F` [FLUCYTOSINE], the minimum inhibitory concentration (MIC) in assay [1], in assay [2], in assay [3], in assay [4], in assay [5] and in assay [6] was 0.12 µg/mL (≈ 0.93 µM) throughout. The minimal inhibitory concentration (MIC) in assay [7] and in assay [8] was 0.12 µg/mL (≈ 0.93 µM) throughout.
